Experimental data: the NIST ThermoML archive (doi:10.1021/acs.jced.8b00438)

Assay: xn = mol fraction of the nth substance listed
Conditions: 100 kPa, Liquid; for viscosity: Falling or rolling sphere viscometry; for mass density: Vibrating tube method

C1CCC(C2CCCCC2)CC1 [1,1'-bicyclohexyl] + CCCCCCCCCCCC
Conditions	mass density [kg/m3]	viscosity [mPa·s]
293.15 K, x2 = 0	886.05	4.003
293.15 K, x2 = 0.1055	869.17	3.406
293.15 K, x2 = 0.2016	854.56	3
293.15 K, x2 = 0.3019	839.7	2.637
293.15 K, x2 = 0.398	825.91	2.369
293.15 K, x2 = 0.5006	811.71	2.166
293.15 K, x2 = 0.5953	798.95	1.998
293.15 K, x2 = 0.6911	786.49	1.839
293.15 K, x2 = 0.7985	772.97	1.697
293.15 K, x2 = 0.8888	761.97	1.62
298.15 K, x2 = 0	882.44	3.53
298.15 K, x2 = 0.1055	865.58	3.025
298.15 K, x2 = 0.2016	850.98	2.681
298.15 K, x2 = 0.3019	836.11	2.366
298.15 K, x2 = 0.398	822.33	2.136
298.15 K, x2 = 0.5006	808.14	1.955
298.15 K, x2 = 0.5953	795.38	1.811
298.15 K, x2 = 0.6911	782.91	1.672
298.15 K, x2 = 0.7985	769.38	1.548
298.15 K, x2 = 0.8888	758.37	1.466
303.15 K, x2 = 0	878.84	3.137
303.15 K, x2 = 0.1055	861.99	2.706
303.15 K, x2 = 0.2016	847.4	2.411
303.15 K, x2 = 0.3019	832.52	2.138
303.15 K, x2 = 0.398	818.74	1.938
303.15 K, x2 = 0.5006	804.55	1.777
303.15 K, x2 = 0.5953	791.78	1.652
303.15 K, x2 = 0.6911	779.31	1.529
303.15 K, x2 = 0.7985	765.77	1.417
303.15 K, x2 = 0.8888	754.75	1.331
308.15 K, x2 = 0	875.25	2.81
308.15 K, x2 = 0.1055	858.41	2.438
308.15 K, x2 = 0.2016	843.81	2.182
308.15 K, x2 = 0.3019	828.94	1.943
308.15 K, x2 = 0.398	815.15	1.766
308.15 K, x2 = 0.5006	800.96	1.624
308.15 K, x2 = 0.5953	788.19	1.513
308.15 K, x2 = 0.6911	775.71	1.405
308.15 K, x2 = 0.7985	762.15	1.305
308.15 K, x2 = 0.8888	751.13	1.223
313.15 K, x2 = 0	871.66	2.532
313.15 K, x2 = 0.1055	854.82	2.209
313.15 K, x2 = 0.2016	840.23	1.985
313.15 K, x2 = 0.3019	825.35	1.776
313.15 K, x2 = 0.398	811.56	1.618
313.15 K, x2 = 0.5006	797.36	1.492
313.15 K, x2 = 0.5953	784.58	1.393
313.15 K, x2 = 0.6911	772.09	1.298
313.15 K, x2 = 0.7985	758.53	1.206
313.15 K, x2 = 0.8888	747.5	1.131
318.15 K, x2 = 0	868.08	2.296
318.15 K, x2 = 0.1055	851.24	2.012
318.15 K, x2 = 0.2016	836.64	1.815
318.15 K, x2 = 0.3019	821.76	1.629
318.15 K, x2 = 0.398	807.96	1.489
318.15 K, x2 = 0.5006	793.76	1.377
318.15 K, x2 = 0.5953	780.98	1.288
318.15 K, x2 = 0.6911	768.48	1.203
318.15 K, x2 = 0.7985	754.91	1.119
318.15 K, x2 = 0.8888	743.86	1.05
323.15 K, x2 = 0	864.5	2.092
323.15 K, x2 = 0.1055	847.66	1.842
323.15 K, x2 = 0.2016	833.06	1.667
323.15 K, x2 = 0.3019	818.17	1.501
323.15 K, x2 = 0.398	804.36	1.376
323.15 K, x2 = 0.5006	790.16	1.275
323.15 K, x2 = 0.5953	777.36	1.195
323.15 K, x2 = 0.6911	764.85	1.119
323.15 K, x2 = 0.7985	751.27	1.041
323.15 K, x2 = 0.8888	740.21	0.978
328.15 K, x2 = 0	860.93	1.915
328.15 K, x2 = 0.1055	844.08	1.693
328.15 K, x2 = 0.2016	829.47	1.536
328.15 K, x2 = 0.3019	814.58	1.389
328.15 K, x2 = 0.398	800.76	1.276
328.15 K, x2 = 0.5006	786.54	1.184
328.15 K, x2 = 0.5953	773.74	1.112
328.15 K, x2 = 0.6911	761.22	1.043
328.15 K, x2 = 0.7985	747.63	0.973
328.15 K, x2 = 0.8888	736.56	0.914
333.15 K, x2 = 0	857.35	1.762
333.15 K, x2 = 0.1055	840.5	1.563
333.15 K, x2 = 0.2016	825.89	1.423
333.15 K, x2 = 0.3019	810.98	1.288
333.15 K, x2 = 0.398	797.16	1.186
333.15 K, x2 = 0.5006	782.93	1.104
333.15 K, x2 = 0.5953	770.11	1.039
333.15 K, x2 = 0.6911	757.59	0.976
333.15 K, x2 = 0.7985	743.98	0.91
333.15 K, x2 = 0.8888	732.9	0.856
